Measured values: US9101613B2, “Methods for treating neurological disease” (Neurim Pharmaceuticals (1991) Ltd., priority 2006, dated 2015)
Read-outs that look alike come from different tables or passages of the source. Marks after values point to notes of the source that are not given here.

Key:
[1] = target: T1, 5-HT2A receptor (Homo sapiens, UniProt P28223); assay: Serotonin receptor binding, [3H] Ketanserin, CHO-K1 membranes
T1 construct: expressed in transfected cells; host or cells: CHO-K1
Experimental: (§1) Aliquots of suspended membranes of human recombinant CHO-K1 cells stably expressing human 5-HT1A, 5-HT2A, 5-HT1B, 5-HT2B, 5-HT2C, 5-HT4, 5-HT6 or 5-HT7 receptors were pre-incubated at 25° C. with 1.5 nM [^3H] 8-OH-DPAT (5-HT1A), 1.5 nM [^3H] Ketanserin (5-HT2A), 0.01 nM [^125I] Cyanopindolol (5-HT1B), 1 nM [^3H] Mesulergine (5-HT2c), 0.7 nM [^3H] GR-113808 (5-HT4) or at 37° C. 1.2 nM [^3H] LSD (5-HT2B, 5-HT6 and 5-HT7) in buffer (50 mM Tris-HCl, pH 7.7) alone or in the presence of 1 nM, 10 nM, 0.1 μM, 1 μM, and 10 μM of N-[2-(5-methoxy-indol-3-yl)-ethyl]-commenamide, N-[2-(5-methoxy-indol-3-yl)-ethyl]-coumalylamide, N-[2-(5-methoxy-indol-3-yl)-ethyl]-comanilamide, N-[2-(5-methoxy-indol-3-yl)-ethyl]-2-methoxy-commenamide or N-[2-(5-methoxy-indol-3-yl)-ethyl]-chelidonamide for 60 minutes. The binding reaction was terminated and washed with 4 ml ice-cold 50 mM Tris-HCl buffer by vacuum filtration. Membranes were then collected, and the filters containing the bound ligands were assayed for the amount of radioactivity in a b-counter. Non-specific binding was evaluated using a reaction with 10 μM metergoline (5-HT1A), 1 μM mianserin (5-HT2A and 5-HT2c) or 10 μM serotonin (5-HT1B, 5-HT2B, 5-HT4, 5-HT6 and 5-HT7).

[2] = target: T2, 5-HT2C receptor (Homo sapiens, UniProt P28335); assay: Serotonin receptor binding, [3H] Mesulergine, CHO-K1 membranes
T2 construct: expressed in transfected cells; host or cells: CHO-K1
T2 sequence (P28335 33-458): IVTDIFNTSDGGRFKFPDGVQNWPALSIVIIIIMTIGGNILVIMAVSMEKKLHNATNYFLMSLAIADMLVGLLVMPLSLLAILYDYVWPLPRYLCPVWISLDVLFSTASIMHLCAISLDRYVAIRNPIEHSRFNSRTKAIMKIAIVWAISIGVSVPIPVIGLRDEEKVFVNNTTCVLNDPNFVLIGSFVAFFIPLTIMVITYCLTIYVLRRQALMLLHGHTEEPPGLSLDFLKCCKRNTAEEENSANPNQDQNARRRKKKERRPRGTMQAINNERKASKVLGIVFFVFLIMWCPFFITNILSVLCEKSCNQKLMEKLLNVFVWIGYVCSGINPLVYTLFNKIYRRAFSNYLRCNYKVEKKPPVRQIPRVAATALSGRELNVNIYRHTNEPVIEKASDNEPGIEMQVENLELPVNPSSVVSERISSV
Experimental: as §1

[3] = system: C57BL/6 mice; assay: MPTP mouse model of Parkinson's disease, open field test; type: in vivo
Description: Three-month-old male C57BL/6 mice were housed in groups of 5 animals per cage (50 cm×25 cm×20 cm) in a temperature- and humidity-controlled environment with ad libitum access to food and water. Animals were maintained on a 12 hr light/dark schedule, with lights on at 7 A.M.
Six groups of mice were used: (1) the control mice treated with saline and vehicle (n=10), (2) the N-[2-(5-methoxy-indol-3-yl)-ethyl]-comanilamide control mice treated with saline and N-[2-(5-methoxy-indol-3-yl)-ethyl]-comanilamide at 100 or 200 mg/kg (n=5, respectively), (3) the MPTP mice treated with MPTP and vehicle (n=10) and (4) the N-[2-(5-methoxy-indol-3-yl)-ethyl]-comanilamide-treated MPTP mice treated with MPTP and N-[2-(5-methoxy-indol-3-yl)-ethyl]-comanilamide at 100 or 200 mg/kg (n=10, respectively). Mice received daily (i.p.) injections of saline or MPTP (30 mg/kg/day) dissolved in physiological saline for five consecutive days to induce Parkinsonism. […]
For the open field test, the mice were taken from their home cages and transported to the locomotor test chambers (40×40×50 cm) for 5 min and their behaviors were recorded as digital videos. The digital videos then were analyzed off-line. The distance of each mouse traveling in the locomotor test chamber was analyzed by the commercial software.

[4] = system: mice; assay: Rotarod assay, interaction with diazepam; type: in vivo; conditions: for Incidence of performance (rotarod): 15 rpm; for effect on rotarod performance: compound alone i.p., 15 rpm rotation speed;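 on Incidence of performance (rotarod): Success means running more than 120 min on the rod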
Experimental: The incidences of animals running more than […] on the rotating rod were noted, and significances were calculated by non-parametric x^2 test. 8 mice/group were used.
The rotarod apparatus is divided into five test zones, so that up to five mice may be tested at the same time. The rod has been specially machined to provide a suitable grip for the animal. The diameter of the rod is 3.5 cm. The rotation speed was 15 rpm. When the animal falls off the rotating rod, it presses a button to record automatically the time spent on the rod. On the day before the experiment the mice were trained to run on the rod rotating with 15 rpm. Diazepam was administered orally 60 min before the rotarod assay, test substances were administered intraperitoneally 15 min before testing.

[5] = Diazepam 1.5 mg/kg p.o. + compound 5 mg/kg i.p.
[6] = Diazepam 1.5 mg/kg p.o. + compound 20 mg/kg i.p.
[7] = Diazepam 1.5 mg/kg p.o. + compound 50 mg/kg i.p.
[8] = Vehicle p.o. + compound 5 mg/kg i.p.
[9] = Vehicle p.o. + compound 20 mg/kg i.p.
[10] = Vehicle p.o. + compound 50 mg/kg i.p.

T1 sequence (P28223 whole entry): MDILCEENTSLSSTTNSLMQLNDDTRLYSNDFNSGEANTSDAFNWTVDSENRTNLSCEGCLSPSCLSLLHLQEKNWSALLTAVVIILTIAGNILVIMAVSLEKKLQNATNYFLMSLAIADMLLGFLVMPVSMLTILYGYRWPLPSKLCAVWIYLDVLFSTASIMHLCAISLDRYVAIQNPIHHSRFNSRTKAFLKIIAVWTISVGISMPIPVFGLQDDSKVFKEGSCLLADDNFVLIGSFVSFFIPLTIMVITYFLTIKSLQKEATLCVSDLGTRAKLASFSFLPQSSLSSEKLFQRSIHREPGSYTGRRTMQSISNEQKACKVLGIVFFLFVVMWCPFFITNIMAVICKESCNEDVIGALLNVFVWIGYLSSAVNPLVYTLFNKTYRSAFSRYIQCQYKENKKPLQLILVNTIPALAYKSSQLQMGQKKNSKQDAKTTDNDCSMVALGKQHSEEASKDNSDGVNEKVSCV

In the case of `COc1ccc2[nH]cc(CCNC(=O)c3cc(=O)cc(C(=O)O)o3)c2c1` [N-[2-5-methoxy-indol-3-yl)-ethyl]-chelidonamide], the IC50 [1] is reported as 7.5 µM, the Ki [1] is reported as 2.14 µM and the IC50 ([2]; read-out: 5-HT2C IC50) is reported as 11.2 µM. It also gave a Ki ([2]; read-out: 5-HT2C KI) of 5.8 µM.
In the case of `COc1ccc2[nH]cc(CCNC(=O)c3cc(=O)cco3)c2c1` [N-[2-(5-methoxy-indol-3-yl)-ethyl]-comanilamide], the “traveled distance, open field test, vs MPTP mice” value ([3]; MPTP mice, 100 or 200 mg/kg i.p. once per day, day 14, both p<0.01) is reported as “showed more level of the traveled distance”, the “traveled distance, open field test, vs control mice” value ([3]; saline mice, 100 or 200 mg/kg i.p., both p>0.05) is reported as “no significant difference in the traveled distance” and the “Incidence of performance (rotarod)” value [4, 5] is reported as 4/8*. The “Incidence of performance (rotarod)” value [4, 6] was 2/8***, the “Incidence of performance (rotarod)” value [4, 7] was 1/8*** and the “Incidence of performance (rotarod)” value [4, 8] was 6/8. For the same compound, the “Incidence of performance (rotarod)” value [4, 9] was 5/8, the “Incidence of performance (rotarod)” value [4, 10] was 5/8 and the “effect on rotarod performance” value [4] was “dose dependently impaired the performance”.
In the case of `COc1ccc2[nH]cc(CCNC(=O)c3cc(=O)c(O)co3)c2c1` [N-[2-(5-methoxy-indol-3-yl)-ethyl]-commenamide], the “Incidence of performance (rotarod)” value [4, 5] is reported as 5/8, the “Incidence of performance (rotarod)” value [4, 6] is reported as 3/8** and the “Incidence of performance (rotarod)” value [4, 7] is reported as 1/8***. For the same compound, the “Incidence of performance (rotarod)” value [4, 8] was 8/8, the “Incidence of performance (rotarod)” value [4, 9] was 5/8 and the “Incidence of performance (rotarod)” value [4, 10] was 5/8. The “effect on rotarod performance” value [4] was “dose dependently impaired the performance”, the IC50 [2] was 7.2 µM and the Ki [2] was 3.8 µM.
